In ChEMBL document CHEMBL1134787, “Synthesis and biological studies of novel nucleoside phosphoramidate prodrugs” (J Med Chem, 2001):

Tests used:
L1210 [1] = test: Growth inhibition in L1210 mouse leukemia cells after 2 hr treatment; format: functional, cell-based; settings: L1210, 2 h
L1210 [2] = test: Growth inhibition in L1210 mouse leukemia cells after 24 h treatment; format: functional, cell-based; settings: L1210, 24 h
L1210 [3] = test: Growth inhibition in L1210 mouse leukemia cells after 48 hr treatment; format: functional, cell-based; settings: L1210, 48 h
L1210 [4] = test: Growth inhibition in L1210 mouse leukemia cells after 8 h treatment; format: functional, cell-based; settings: L1210, 8 h
Thymidylate synthase [5] = target: T1, Thymidylate synthase (Mus musculus, UniProt P07607); test: Thymidylate synthase inhibition in L1210 mouse leukemia cells after 2 hr treatment; format: cell-based
T1 sequence (P07607 whole entry): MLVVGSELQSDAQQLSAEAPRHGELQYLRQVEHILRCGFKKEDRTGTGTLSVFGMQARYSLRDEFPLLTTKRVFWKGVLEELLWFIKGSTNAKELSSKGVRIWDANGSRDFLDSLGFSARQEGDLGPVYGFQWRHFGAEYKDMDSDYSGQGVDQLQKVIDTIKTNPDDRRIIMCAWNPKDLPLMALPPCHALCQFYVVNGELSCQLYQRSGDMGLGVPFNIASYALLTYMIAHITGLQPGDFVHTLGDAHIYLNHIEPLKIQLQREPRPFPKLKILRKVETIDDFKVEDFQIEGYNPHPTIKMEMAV

Thymidylate synthase [6] = target: T1, Thymidylate synthase; test: Thymidylate synthase inhibition in thymidine kinase deficient /TK cells after 2 hr treatment
Thymidylate synthase [7] = target: T1, Thymidylate synthase; test: Thymidylate synthase inhibition in thymidine kinase deficient LM cells after 2 hr treatment; format: cell-based
Thymidylate synthase [8] = target: T1, Thymidylate synthase; test: Thymidylate synthase inhibition in wild type LM cells after 2 hr treatment; format: cell-based

| Structure (SMILES) | IC50 (L1210 [1]) [nM] | IC50 (L1210 [2]) [nM] | IC50 (L1210 [3]) [nM] | IC50 (L1210 [4]) [nM] | IC50 (Thymidylate synthase [5]) [nM] | IC50 (Thymidylate synthase [6]) [nM] | IC50 (Thymidylate synthase [7]) [nM] | IC50 (Thymidylate synthase [8]) [nM] |
| --- | --- | --- | --- | --- | --- | --- | --- | --- |
| O=c1[nH]cc(F)c(=O)[nH]1 [FLUOROURACIL] | 2500 | 360 | 200 | 1010 | – | – | – | – |
| O=c1[nH]c(=O)n([C@H]2C[C@H](O)[C@@H](CO)O2)cc1F [FLOXURIDINE] | 45 | 4.1 | 0.64 | 23 | 7.9 | 20 | 5400 | 260 |
| CN(CCBr)P(=O)(OCc1ccc([N+](=O)[O-])o1)OC[C@H]1O[C@@H](n2cc(F)c(=O)[nH]c2=O)C[C@@H]1O (some centres not stated) | 1030 | 56 | 16 | 347 | – | – | – | – |
| CN(CCCCCl)P(=O)(OCC1=CC(=O)c2ccccc2C1=O)OC[C@H]1O[C@@H](n2cc(F)c(=O)[nH]c2=O)C[C@@H]1O (some centres not stated) | 44 | 3.1 | 0.63 | 16 | 10 | 25 | 5900 | 230 |
| CN(CCCCCl)P(=O)(OCc1ccc([N+](=O)[O-])o1)OC[C@H]1O[C@@H](n2cc(F)c(=O)[nH]c2=O)C[C@@H]1O (some centres not stated) | 116 | 7.2 | 2.3 | 47 | 65 | 1.9 | 1060 | 560 |
